We go through two compounds from ChEMBL document CHEMBL3244338, “Antineoplastic agents. Structure-activity relationship study of bis(substituted aminoalkylamino)anthraquinones” (J Med Chem, 1978).

Calls of active or inactive are those of the source. The calls are words filed in the database; no cut-off is given here.

Data set [1] deals with B16. The data set can be described thus: Antitumor activity against mouse B16 cells allografted in BDF1 mouse assessed as increase in survival time at 0.5 mg/kg administered 24 hrs post challenge relative to control. It counts as functional.
Data set [2] deals with P388. The data set can be described thus: Antitumor activity against mouse P388 cells allografted in BDF1 mouse assessed as mouse survival at 0.06 mg/kg administered 24 hrs post challenge relative to control. Also noted: dose 0.06 mg/kg. In kind it is functional, organism-based.
Data set [3] relates to B16. The data set can be described thus: Antitumor activity against mouse B16 cells allografted in BDF1 mouse assessed as increase in survival time at 1 mg/kg administered 24 hrs post challenge relative to control. In kind it is functional.
The test system of data set [4] is P388. Briefly: Antitumor activity against mouse P388 cells allografted in BDF1 mouse assessed as increase in survival time at 0.25 mg/kg administered 24 hrs post challenge relative to control. In kind it is functional.
The test system of data set [5] is P388. Briefly: Antitumor activity against mouse P388 cells allografted in BDF1 mouse assessed as increase in survival time at 0.5 mg/kg administered 24 hrs post challenge relative to control. In kind it is functional.
In data set [6] the test system is P388. The data set can be described thus: Antitumor activity against mouse P388 cells allografted in BDF1 mouse assessed as mouse survival at 0.5 mg/kg administered 24 hrs post challenge relative to control. It counts as functional, organism-based. Also noted: dose 0.5 mg/kg.
Data set [7] relates to P388. Briefly: Antitumor activity against mouse P388 cells allografted in BDF1 mouse assessed as increase in survival time at 2 mg/kg administered 24 hrs post challenge relative to control. In kind it is functional.
The test system of data set [8] is Mus musculus. Briefly: Toxicity in mouse P388 cells allografted BDF1 mouse assessed as body weight difference at 0.12 mg/kg administered 24 hrs post challenge relative to control. The settings on record: in vivo. In kind it is organism-based. Also noted: dose 0.12 mg/kg.
Data set [9] relates to Mus musculus. The data set can be described thus: Toxicity in mouse P388 cells allografted BDF1 mouse assessed as body weight difference at 0.5 mg/kg administered 24 hrs post challenge relative to control. In kind it is organism-based. Also noted: dose 0.5 mg/kg. The settings on record: in vivo.
In data set [10] the test system is P388. The data set can be described thus: Antitumor activity against mouse P388 cells allografted in BDF1 mouse assessed as mouse survival at 2 mg/kg administered 24 hrs post challenge relative to control. It counts as functional, organism-based. Also on record: dose 2 mg/kg.
Data set [11] relates to Mus musculus. The data set can be described thus: Toxicity in mouse P388 cells allografted BDF1 mouse assessed as body weight difference at 1 mg/kg administered 24 hrs post challenge relative to control. Also noted: dose 1 mg/kg. It counts as organism-based. The settings on record: in vivo.
Data set [12] concerns P388. Briefly: Antitumor activity against mouse P388 cells allografted in BDF1 mouse assessed as mouse survival at 0.12 mg/kg administered 24 hrs post challenge relative to control. It counts as functional, organism-based. Also noted: dose 0.12 mg/kg.
Data set [13] deals with P388. Briefly: Antitumor activity against mouse P388 cells allografted in BDF1 mouse assessed as increase in survival time at 0.06 mg/kg administered 24 hrs post challenge relative to control. In kind it is functional.
Data set [14] relates to Mus musculus. The data set can be described thus: Toxicity in mouse P388 cells allografted BDF1 mouse assessed as body weight difference at 0.06 mg/kg administered 24 hrs post challenge relative to control. In kind it is organism-based. Also on record: dose 0.06 mg/kg. The settings on record: in vivo.
Data set [15] concerns Mus musculus. Briefly: Toxicity in mouse P388 cells allografted BDF1 mouse assessed as body weight difference at 2 mg/kg administered 24 hrs post challenge relative to control. It counts as organism-based. Also on record: dose 2 mg/kg. Conditions: in vivo.
Data set [16] deals with Mus musculus. Briefly: Toxicity in mouse P388 cells allografted BDF1 mouse assessed as body weight difference at 0.25 mg/kg administered 24 hrs post challenge relative to control. In kind it is organism-based. Also on record: dose 0.25 mg/kg. The settings on record: in vivo.
Data set [17] has as its system P388. Briefly: Antitumor activity against mouse P388 cells allografted in BDF1 mouse assessed as increase in survival time at 0.12 mg/kg administered 24 hrs post challenge relative to control. It counts as functional.
The subject of data set [18] is P388. Briefly: Antitumor activity against mouse P388 cells allografted in BDF1 mouse assessed as increase in survival time at 1 mg/kg administered 24 hrs post challenge relative to control. In kind it is functional.
For data set [19], the system named is P388. Briefly: Antitumor activity against mouse P388 cells allografted in BDF1 mouse assessed as mouse survival at 0.25 mg/kg administered 24 hrs post challenge relative to control. It counts as functional, organism-based. Also on record: dose 0.25 mg/kg.
Data set [20] deals with P388. Briefly: Antitumor activity against mouse P388 cells allografted in BDF1 mouse assessed as mouse survival at 6.25 mg/kg administered 24 hrs post challenge relative to control. In kind it is functional, organism-based. Also noted: dose 6.25 mg/kg.
The test system of data set [21] is P388. The data set can be described thus: Antitumor activity against mouse P388 cells allografted in BDF1 mouse assessed as increase in survival time at 6.25 mg/kg administered 24 hrs post challenge relative to control. It counts as functional.
Data set [22] concerns Mus musculus. Briefly: Toxicity in mouse P388 cells allografted BDF1 mouse assessed as body weight difference at 1.56 mg/kg administered 24 hrs post challenge relative to control. In kind it is organism-based. Also noted: dose 1.56 mg/kg. The settings on record: in vivo.
Data set [23] concerns P388. Briefly: Antitumor activity against mouse P388 cells allografted in BDF1 mouse assessed as mouse survival at 3.13 mg/kg administered 24 hrs post challenge relative to control. It counts as functional, organism-based. Also noted: dose 3.13 mg/kg.
Data set [24] deals with Mus musculus. Briefly: Toxicity in mouse P388 cells allografted BDF1 mouse assessed as body weight difference at 6.25 mg/kg administered 24 hrs post challenge relative to control. It counts as organism-based. Also noted: dose 6.25 mg/kg. Conditions: in vivo.
For data set [25], the system named is B16. The data set can be described thus: Antitumor activity against mouse B16 cells allografted in BDF1 mouse assessed as increase in survival time at 8 mg/kg administered 24 hrs post challenge relative to control. In kind it is functional.
Data set [26] deals with Mus musculus. The data set can be described thus: Toxicity in mouse P388 cells allografted BDF1 mouse assessed as body weight difference at 3.13 mg/kg administered 24 hrs post challenge relative to control. In kind it is organism-based. Also on record: dose 3.13 mg/kg. The settings on record: in vivo.
Data set [27] has as its system P388. Briefly: Antitumor activity against mouse P388 cells allografted in BDF1 mouse assessed as increase in survival time at 1.56 mg/kg administered 24 hrs post challenge relative to control. It counts as functional.
Data set [28] relates to P388. Briefly: Antitumor activity against mouse P388 cells allografted in BDF1 mouse assessed as mouse survival at 12.5 mg/kg administered 24 hrs post challenge relative to control. It counts as functional, organism-based. Also on record: dose 12.5 mg/kg.
Data set [29] has as its system Mus musculus. The data set can be described thus: Toxicity in mouse P388 cells allografted BDF1 mouse assessed as body weight difference at 0.78 mg/kg administered 24 hrs post challenge relative to control. Conditions: in vivo. It counts as organism-based. Also noted: dose 0.78 mg/kg.
The subject of data set [30] is P388. The data set can be described thus: Antitumor activity against mouse P388 cells allografted in BDF1 mouse assessed as increase in survival time at 25 mg/kg administered 24 hrs post challenge relative to control. In kind it is functional.
Data set [31] has as its system B16. Briefly: Antitumor activity against mouse B16 cells allografted in BDF1 mouse assessed as increase in survival time at 4 mg/kg administered 24 hrs post challenge relative to control. It counts as functional.
In data set [32] the test system is Mus musculus. Briefly: Toxicity in mouse P388 cells allografted BDF1 mouse assessed as body weight difference at 25 mg/kg administered 24 hrs post challenge relative to control. In kind it is organism-based. Also on record: dose 25 mg/kg. Conditions: in vivo.
Data set [33] deals with P388. The data set can be described thus: Antitumor activity against mouse P388 cells allografted in BDF1 mouse assessed as increase in survival time at 3.13 mg/kg administered 24 hrs post challenge relative to control. In kind it is functional.
Data set [34] has as its system P388. Briefly: Antitumor activity against mouse P388 cells allografted in BDF1 mouse assessed as increase in survival time at 12.5 mg/kg administered 24 hrs post challenge relative to control. In kind it is functional.
Data set [35] concerns Mus musculus. Briefly: Toxicity in mouse P388 cells allografted BDF1 mouse assessed as body weight difference at 12.5 mg/kg administered 24 hrs post challenge relative to control. It counts as organism-based. Also noted: dose 12.5 mg/kg. Conditions: in vivo.
Data set [36] relates to P388. The data set can be described thus: Antitumor activity against mouse P388 cells allografted in BDF1 mouse assessed as mouse survival at 1.56 mg/kg administered 24 hrs post challenge relative to control. It counts as functional, organism-based. Also on record: dose 1.56 mg/kg.
Data set [37] relates to P388. The data set can be described thus: Antitumor activity against mouse P388 cells allografted in BDF1 mouse assessed as mouse survival at 0.78 mg/kg administered 24 hrs post challenge relative to control. In kind it is functional, organism-based. Also noted: dose 0.78 mg/kg.
Data set [38] deals with P388. The data set can be described thus: Antitumor activity against mouse P388 cells allografted in BDF1 mouse assessed as mouse survival at 25 mg/kg administered 24 hrs post challenge relative to control. It counts as functional, organism-based. Also on record: dose 25 mg/kg.
Data set [39] concerns B16. The data set can be described thus: Antitumor activity against mouse B16 cells allografted in BDF1 mouse assessed as increase in survival time at 16 mg/kg administered 24 hrs post challenge relative to control. It counts as functional.
The test system of data set [40] is P388. Briefly: Antitumor activity against mouse P388 cells allografted in BDF1 mouse assessed as increase in survival time at 0.78 mg/kg administered 24 hrs post challenge relative to control. In kind it is functional.

With `O=C1c2c(O)ccc(O)c2C(=O)c2c(NCCNCCO)ccc(NCCNCCO)c21` [MITOXANTRONE], the T/C with B16 [1] stood at 466%; in the data set with B16 [3], 503%; with P388 [4], 280%; with P388 [5], 299%; in the data set on P388 [7] it was 280%; with P388 [13], 208%. In addition, the T/C with P388 [17] amounted to 200%; in the data set with P388 [18] it was 277%. Further, the result with P388 [2], in the data set with P388 [6], in the data set with P388 [10], with P388 [12] and in the data set on P388 [19] was Active. In addition, the Activity is reported as -1.4 g in the data set with Mus musculus [8]; -2 g in the data set with Mus musculus [9]; -0.6 g in the data set with Mus musculus [11]; -1.7 g in the data set with Mus musculus [14]; -0.6 g with Mus musculus [15]; -2.3 g with Mus musculus [16].

Regarding `NCCNc1ccc(NCCN)c2c1C(=O)c1ccccc1C2=O`, the outcome in the data set on P388 [20], in the data set with P388 [23], in the data set with P388 [28], in the data set on P388 [36], in the data set with P388 [37] and in the data set with P388 [38] was Active. Besides, the T/C with P388 [21] was 159%; with B16 [25] it was 280%; with P388 [27], 137%; with P388 [30] it was 215%; in the data set on B16 [31] it was 280%; in the data set with P388 [33] it was 107%. In addition, the T/C in the data set with P388 [34] was 174%; with B16 [39], 281%; with P388 [40], 150%. Also, the Activity with Mus musculus [22] is on record as -1.6 g; with Mus musculus [24] it was -1.1 g; in the data set with Mus musculus [26] it was -0.9 g; in the data set on Mus musculus [29], -1.3 g; in the data set with Mus musculus [32] it was -2.6 g; in the data set on Mus musculus [35], -1.1 g.

As usually defined, the T/C is the result in the treated group divided by that in the control group, in per cent.
